Test results reported in PubChem BioAssay (NCI).
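Compound exposure: 48 hours, 5 concentrations, 96-well plates. GI50: concentration for 50% inhibition of growth. TGI marks complete inhibition of growth.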

Columns and labels:
Assay in all cases: NCI-60 cell line screen, 48 h
[1] = tested on: HCT-15 colon
[2] = tested on: SK-OV-3 ovarian
[3] = tested on: OVCAR-3 ovarian
[4] = tested on: A549 NSCLC
[5] = tested on: RPMI-8226 leukemia
[6] = tested on: SNB-19 CNS
[7] = tested on: EKVX NSCLC
[8] = tested on: NCI-H460 lung
[9] = tested on: HOP-92 NSCLC
[10] = tested on: LOX IMVI melanoma

| SMILES | TGI [1] [µM] | TGI [2] [µM] | TGI [3] [µM] | TGI [4] [µM] | TGI [5] [µM] | TGI [6] [µM] | TGI [7] [µM] | TGI [8] [µM] | TGI [9] [µM] | TGI [10] [µM] | GI50 [1] [µM] | GI50 [2] [µM] | GI50 [3] [µM] | GI50 [4] [µM] | GI50 [5] [µM] | GI50 [6] [µM] | GI50 [7] [µM] | GI50 [8] [µM] | GI50 [9] [µM] |
| --- | --- | --- | --- | --- | --- | --- | --- | --- | --- | --- | --- | --- | --- | --- | --- | --- | --- | --- | --- |
| COC(=O)C12C3C=CC(O3)C1C1C=CC2O1 (stereo not drawn) | > 100 | > 100 | > 100 | > 100 | > 100 | > 100 | > 100 | > 100 | > 100 |  |  |  |  |  |  |  |  |  |  |
| COC(=O)C1(c2ccc(OC)cc2)NC(c2ccccc2)C2C(=O)N(c3ccc(OC)cc3)C(=O)C21 (stereo not drawn) | > 100 | > 100 |  | > 100 | > 100 | > 100 | > 100 | > 100 |  | > 100 |  |  |  |  |  |  |  |  |  |
| Cn1c(=O)c2c(nc3n2C(CCl)CO3)n(C)c1=O (stereo not drawn) | > 100 | > 100 | > 100 |  | > 100 | > 100 | > 100 | > 100 | > 100 |  |  |  |  |  |  |  |  |  |  |
| CNS(=O)(=O)NN(C)S(=O)(=O)c1ccc(C)cc1 |  | > 100 | > 100 | > 100 | > 100 | > 100 | > 100 | > 100 | > 100 |  |  |  |  |  |  |  |  |  |  |
| O=C1/C(=C/c2ccccc2Cl)COc2ccccc21 |  | 72.5 | 34.8 | 55.8 | 22 |  | 29.7 | 43.6 | 29.4 | 35.8 |  |  |  |  |  |  |  |  |  |
| CC1(C)CC(C2CC(C)(C)CC(C)(C)[C@H]2O)[C@@H](O)C(C)(C)C1 (stereo partly drawn) | > 100 | > 100 | > 100 | > 100 | > 100 | > 100 | > 100 | > 100 |  | > 100 |  |  |  |  |  |  |  |  |  |
| Nc1ccc(C(=O)O)c2[nH]c3ccccc3c(=O)c12 | > 100 | > 100 |  | > 100 | > 100 | > 100 |  | > 100 | > 100 | > 100 |  |  |  |  |  |  |  |  |  |
| COc1ccc(C(=O)Nc2ccccc2)cc1[N+](=O)[O-] | > 100 | > 100 | > 100 | > 100 | > 100 | > 100 | > 100 | > 100 |  | > 100 |  |  |  |  |  |  |  |  |  |
| Cn1cc(-c2nonc2-c2cn(C)c3ccc(Br)cc23)c2ccccc21 | > 100 | > 100 | 8.61 | > 100 | > 100 | > 100 | > 100 | > 100 | > 100 |  | 2.17 | 7.52 | 2.8 | 5.29 | 3.32 | 5.33 | 3.82 | 3.31 | 5.16 |
| Nc1cc2c3c(cccc3c1)C(=O)N(CCN1CCN(CCN3C(=O)c4cccc5cc(N)cc(c45)C3=O)CC1)C2=O | > 100 | > 100 | > 100 | > 100 | > 100 | > 100 | > 100 | > 100 | > 100 |  |  |  |  |  |  |  |  |  |  |
| COc1cc(C2c3cc4c(cc3[C@@H](OCCN)[C@H]3COC(=O)C23)OCO4)cc(OC)c1O (stereo partly drawn) | 24.7 | 1.48 | 3.06 | 1.34 |  | 1.93 | 2.22 | > 100 | 1.43 | 0.395 |  |  |  |  |  |  |  |  |  |
